Results: ChEMBL document CHEMBL3714736, “Heterocyclic compounds for the inhibition of PASK” (2015)
Calls of active or inactive are those of the source. No cut-off for these calls is given here.

Experiments:
[1] = target: T1, PAS domain-containing serine/threonine-protein kinase (Homo sapiens, UniProt Q96RG2); assay: Inhibition of N-terminal GST-tagged human recombinant PASK kinase domain (879 to 1323 residues) expressed in insect cells using MBP protein substrate incubated for 120 mins in presence of [33P]ATP by scintillation counting based radiochemical assay
T1 sequence (Q96RG2 whole entry, the tested form may be a part): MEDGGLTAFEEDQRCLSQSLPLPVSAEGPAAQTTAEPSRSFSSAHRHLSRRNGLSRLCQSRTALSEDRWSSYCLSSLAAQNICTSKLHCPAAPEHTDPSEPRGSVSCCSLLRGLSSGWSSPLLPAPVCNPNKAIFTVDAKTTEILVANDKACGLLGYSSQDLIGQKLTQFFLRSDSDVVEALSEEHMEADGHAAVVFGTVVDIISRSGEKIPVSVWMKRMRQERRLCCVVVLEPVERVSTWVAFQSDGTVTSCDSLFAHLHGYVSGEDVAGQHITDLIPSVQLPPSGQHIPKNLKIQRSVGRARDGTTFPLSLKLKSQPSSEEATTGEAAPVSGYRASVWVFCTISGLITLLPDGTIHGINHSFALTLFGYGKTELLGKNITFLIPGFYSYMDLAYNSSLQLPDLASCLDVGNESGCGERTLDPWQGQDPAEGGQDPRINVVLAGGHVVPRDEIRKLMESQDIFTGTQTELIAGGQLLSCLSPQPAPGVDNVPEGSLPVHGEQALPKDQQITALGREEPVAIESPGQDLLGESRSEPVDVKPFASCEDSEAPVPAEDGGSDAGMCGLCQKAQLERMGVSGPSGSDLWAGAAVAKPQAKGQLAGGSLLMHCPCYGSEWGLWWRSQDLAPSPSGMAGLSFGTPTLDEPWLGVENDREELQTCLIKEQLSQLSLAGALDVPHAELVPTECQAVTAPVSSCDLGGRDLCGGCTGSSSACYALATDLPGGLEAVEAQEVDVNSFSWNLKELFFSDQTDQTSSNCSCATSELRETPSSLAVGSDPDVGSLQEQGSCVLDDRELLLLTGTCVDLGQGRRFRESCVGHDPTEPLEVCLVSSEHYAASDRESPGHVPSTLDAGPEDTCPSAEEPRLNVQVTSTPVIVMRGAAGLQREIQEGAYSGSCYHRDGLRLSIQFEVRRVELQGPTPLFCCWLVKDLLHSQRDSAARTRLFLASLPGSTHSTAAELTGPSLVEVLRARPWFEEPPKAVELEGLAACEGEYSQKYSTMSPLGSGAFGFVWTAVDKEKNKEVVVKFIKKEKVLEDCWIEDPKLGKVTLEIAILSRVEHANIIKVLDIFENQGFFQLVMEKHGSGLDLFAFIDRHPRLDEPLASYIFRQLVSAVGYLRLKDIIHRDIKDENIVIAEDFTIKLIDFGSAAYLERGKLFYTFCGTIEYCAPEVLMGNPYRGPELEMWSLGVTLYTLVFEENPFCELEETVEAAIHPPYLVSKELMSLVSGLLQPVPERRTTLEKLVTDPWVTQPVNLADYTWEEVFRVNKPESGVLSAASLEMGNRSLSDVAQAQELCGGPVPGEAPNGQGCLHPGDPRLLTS

[2] = target: T1, PAS domain-containing serine/threonine-protein kinase; assay: Inhibition of human recombinant PASK using Ulight-peptide substrate incubated for 2 hrs by TR-FRET assay
Mus musculus [3] = assay: Reduction in body weight in high-fat diet fed C57B16 mouse with fast/re-feed at 30 to 100 mg/kg, po daily for 3 days; type: functional, organism-based
Mus musculus [4] = assay: Reduction in liver weight in high-fat diet fed C57B16 mouse with fast/re-feed at 30 to 100 mg/kg, po daily for 3 days; type: functional
Mus musculus [5] = assay: Reduction in liver weight in high-fat diet fed C57B16 mouse with fast/re-feed at 30 mg/kg, po daily for 3 days; type: functional
Mus musculus [6] = assay: Reduction in liver weight in high-fat diet fed C57B16 mouse with fast/re-feed at 100 mg/kg, po daily for 3 days; type: functional; conditions: for inhibition in vivo at 100 mg/kg: 72 h
Mus musculus [7] = assay: Reduction in plasma glucose level in high-fat diet fed C57B16 mouse with fast/re-feed at 30 to 100 mg/kg, po daily for 3 days by colorimetric assay; type: functional, organism-based
Mus musculus [8] = assay: Reduction in plasma glucose level in high-fat diet fed C57B16 mouse with fast/re-feed at 100 mg/kg, po daily for 3 days by colorimetric assay; type: functional; conditions: 72 h
Mus musculus [9] = assay: Reduction in plasma glucose level in fasted C57B16 mouse at 30 to 100 mg/kg, po daily for 3 days by colorimetric assay; type: functional, organism-based
Mus musculus [10] = assay: Reduction in plasma insulin level in high-fat diet fed C57B16 mouse with fast/re-feed at 30 to 100 mg/kg, po daily for 3 days by colorimetric assay; type: functional, organism-based
Mus musculus [11] = assay: Reduction in plasma insulin level in fasted fed C57B16 mouse at 30 mg/kg, po daily for 3 days by colorimetric assay; type: functional; conditions: 72 h
Mus musculus [12] = assay: Reduction in plasma insulin level in fasted fed C57B16 mouse at 100 mg/kg, po daily for 3 days by colorimetric assay; type: functional; conditions: 72 h
Rattus norvegicus [13] = assay: Reduction in body weight in high fructose diet fed Sprague-Dawley rat with fast/re-feed at 30 and 100 mg/kg, po dosed once daily for 7 days; type: functional, organism-based
Rattus norvegicus [14] = assay: Reduction in liver weight in high fructose diet fed Sprague-Dawley rat with fast/re-feed at 30 and 100 mg/kg, po dosed once daily for 7 days; type: functional, organism-based
Rattus norvegicus [15] = assay: Reduction in liver weight in high fructose diet fed Sprague-Dawley rat with fast/re-feed at 100 mg/kg, po dosed once daily for 7 days; type: functional; conditions: 168 h
Rattus norvegicus [16] = assay: Reduction in plasma glucose level in high fructose diet fed Sprague-Dawley rat with fast/re-feed at 30 and 100 mg/kg, po dosed once daily for 7 days by colorimetric assay; type: functional, organism-based
Rattus norvegicus [17] = assay: Reduction in plasma triglyceride level in high fructose diet fed Sprague-Dawley rat with fast/re-feed at 30 and 100 mg/kg, po dosed once daily for 7 days by colorimetric assay; type: functional, organism-based
Rattus norvegicus [18] = assay: Reduction in plasma cholesterol level in high fructose diet fed Sprague-Dawley rat with fast/re-feed at 30 and 100 mg/kg, po dosed once daily for 7 days by colorimetric assay; type: functional, organism-based
Rattus norvegicus [19] = assay: Reduction in body weight in high fructose diet fed Sprague-Dawley rat with fast/re-feed at 30 mg/kg, po dosed once daily for 7 days; type: functional, organism-based
Rattus norvegicus [20] = assay: Increase in liver weight in high fructose diet fed Sprague-Dawley rat with fast/re-feed at 30 mg/kg, po dosed once daily for 7 days; type: ADME, organism-based; conditions: in vivo, 168 h
Rattus norvegicus [21] = assay: Reduction in plasma glucose level in high fructose diet fed Sprague-Dawley rat with fast/re-feed at 30 mg/kg, po dosed once daily for 7 days by colorimetric assay; type: functional

Q: For CN(C1CCN(c2nc3cc(C(=O)O)ccc3nc2-c2ccccc2)CC1)S(C)(=O)=O, which IC50 [1] is on record?
A: ≤ 10 µM

Q: Which IC50 [2] does the source give for O=C(O)c1ccc2nc(-c3ccc4c(c3)OCO4)c(N3CCCc4ccccc43)nc2c1 here?
A: ≤ 10 µM

Q: Which inhibition (Mus musculus [3]) does the source give for CC(C)N(C)c1nc2cc(C(=O)O)ccc2nc1-c1ccc(F)cc1 here?
A: Dose-dependent effect

Q: And the inhibition (Mus musculus [4])?
A: Dose-dependent effect

Q: What about the “inhibition (INH)” value (Mus musculus [4]) of the same molecule?
A: 7%

Q: What about the inhibition (Mus musculus [5]) of the same molecule?
A: Dose-dependent effect

Q: And the inhibition in vivo at 30 mg/kg (Mus musculus [5]; 72 h)?
A: 7%

Q: What about the inhibition (Mus musculus [6]) of the same molecule?
A: Dose-dependent effect

Q: What about the inhibition in vivo at 100 mg/kg (Mus musculus [6]) of the same molecule?
A: 7%

Q: What about the inhibition (Mus musculus [7]) of the same molecule?
A: Dose-dependent effect

Q: What about the inhibition in vivo at 100 mg/kg (Mus musculus [8]) of the same molecule?
A: ≤ 27%

Q: And the inhibition (Mus musculus [9])?
A: Dose-dependent effect

Q: What about the inhibition (Mus musculus [10]) of the same molecule?
A: Dose-dependent effect

Q: And the inhibition in vivo at 30 mg/kg (Mus musculus [11])?
A: ≤ 26%

Q: What about the inhibition in vivo at 100 mg/kg (Mus musculus [12]) of the same molecule?
A: ≤ 26%

Q: And the inhibition (Rattus norvegicus [13])?
A: Active

Q: What about the inhibition (Rattus norvegicus [14]) of the same molecule?
A: Active

Q: What about the inhibition in vivo at 100 mg/kg (Rattus norvegicus [15]) of the same molecule?
A: 4%

Q: And the inhibition (Rattus norvegicus [16])?
A: Dose-dependent effect

Q: And the inhibition (Rattus norvegicus [17])?
A: Dose-dependent effect

Q: And the inhibition (Rattus norvegicus [18])?
A: Active

Q: Which results are given for CC(C)OC(=O)C1=CN(C(=O)c2ccc(F)c(F)c2)CC(C)(C)c2c1[nH]c1ccccc21 [TUROFEXORATE ISOPROPYL]?
A: inhibition in vivo at 100 mg/kg (Mus musculus [6]): 7%; Activity (Rattus norvegicus [19]): inactive; Activity (Rattus norvegicus [20]): 15%; inhibition (Rattus norvegicus [21]): inactive

Q: With CC(C)N(C)c1nc2cc(C(=O)O)ccc2nc1-c1ccc2nccn2c1 as the molecule, how does the IC50 [2] read?
A: ≤ 10 µM
